Test in all cases: TLC product analysis
Common to all, as to type: biochemical
What all share (settings): 60 °C, MOPS buffer, 10 mM CaCl2

One assay concerns the target T1, Cel9K (Acetivibrio thermocellus, UniProt A3DCH1).
T1 construct: gene celK; signal peptide removed, dockerin kept, His-tag, codon-optimised synthetic gene, E. coli BL21
T1 sequence (A3DCH1 28-895): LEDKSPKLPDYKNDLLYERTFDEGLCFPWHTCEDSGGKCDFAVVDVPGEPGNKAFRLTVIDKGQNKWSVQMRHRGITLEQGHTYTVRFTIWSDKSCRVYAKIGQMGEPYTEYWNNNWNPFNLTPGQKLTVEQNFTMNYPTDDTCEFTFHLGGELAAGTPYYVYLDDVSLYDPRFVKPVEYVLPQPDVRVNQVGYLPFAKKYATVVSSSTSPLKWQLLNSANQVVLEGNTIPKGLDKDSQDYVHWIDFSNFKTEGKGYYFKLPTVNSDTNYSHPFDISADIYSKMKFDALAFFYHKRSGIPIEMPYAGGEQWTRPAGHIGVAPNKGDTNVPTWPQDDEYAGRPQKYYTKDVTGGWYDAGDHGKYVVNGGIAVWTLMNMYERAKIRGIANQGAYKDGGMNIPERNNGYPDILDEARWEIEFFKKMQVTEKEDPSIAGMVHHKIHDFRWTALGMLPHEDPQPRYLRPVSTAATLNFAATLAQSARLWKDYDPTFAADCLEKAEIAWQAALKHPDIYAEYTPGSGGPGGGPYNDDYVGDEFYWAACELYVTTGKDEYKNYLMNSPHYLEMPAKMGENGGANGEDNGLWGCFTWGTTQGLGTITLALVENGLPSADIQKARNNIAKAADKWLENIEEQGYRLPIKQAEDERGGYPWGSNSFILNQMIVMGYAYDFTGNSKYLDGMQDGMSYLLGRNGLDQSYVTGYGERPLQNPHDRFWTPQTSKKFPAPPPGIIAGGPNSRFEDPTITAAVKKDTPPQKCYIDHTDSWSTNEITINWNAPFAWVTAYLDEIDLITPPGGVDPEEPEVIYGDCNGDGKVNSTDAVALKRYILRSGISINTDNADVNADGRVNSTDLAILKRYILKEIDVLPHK

The target of a further assay is T2, Cel9T (Acetivibrio thermocellus, UniProt A3DJ82).
T2 construct: gene Cthe_2812; signal peptide removed, dockerin kept, His-tag, E. coli BL21
T2 sequence (A3DJ82 36-611): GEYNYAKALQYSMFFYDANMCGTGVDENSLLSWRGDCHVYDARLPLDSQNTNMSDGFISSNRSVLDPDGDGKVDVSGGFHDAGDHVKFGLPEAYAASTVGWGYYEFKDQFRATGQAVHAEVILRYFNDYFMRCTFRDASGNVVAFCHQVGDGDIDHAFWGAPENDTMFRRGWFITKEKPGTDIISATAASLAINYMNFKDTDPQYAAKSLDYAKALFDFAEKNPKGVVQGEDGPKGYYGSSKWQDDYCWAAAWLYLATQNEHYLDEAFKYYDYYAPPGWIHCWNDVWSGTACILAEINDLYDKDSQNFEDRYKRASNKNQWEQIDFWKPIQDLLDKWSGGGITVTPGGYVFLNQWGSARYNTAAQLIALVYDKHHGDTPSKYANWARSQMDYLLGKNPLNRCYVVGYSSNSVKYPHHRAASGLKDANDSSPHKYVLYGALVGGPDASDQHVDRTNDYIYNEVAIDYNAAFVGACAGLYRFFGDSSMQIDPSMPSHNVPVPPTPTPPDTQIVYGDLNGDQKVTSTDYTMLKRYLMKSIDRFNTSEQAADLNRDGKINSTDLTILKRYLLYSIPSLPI

A further assay addresses T3, Cel5-26H (Acetivibrio thermocellus, UniProt P16218).
T3 construct: gene celH; signal peptide removed, GH5 and GH26 modules, dockerin kept, His-tag, E. coli BL21
T3 sequence (P16218 45-900): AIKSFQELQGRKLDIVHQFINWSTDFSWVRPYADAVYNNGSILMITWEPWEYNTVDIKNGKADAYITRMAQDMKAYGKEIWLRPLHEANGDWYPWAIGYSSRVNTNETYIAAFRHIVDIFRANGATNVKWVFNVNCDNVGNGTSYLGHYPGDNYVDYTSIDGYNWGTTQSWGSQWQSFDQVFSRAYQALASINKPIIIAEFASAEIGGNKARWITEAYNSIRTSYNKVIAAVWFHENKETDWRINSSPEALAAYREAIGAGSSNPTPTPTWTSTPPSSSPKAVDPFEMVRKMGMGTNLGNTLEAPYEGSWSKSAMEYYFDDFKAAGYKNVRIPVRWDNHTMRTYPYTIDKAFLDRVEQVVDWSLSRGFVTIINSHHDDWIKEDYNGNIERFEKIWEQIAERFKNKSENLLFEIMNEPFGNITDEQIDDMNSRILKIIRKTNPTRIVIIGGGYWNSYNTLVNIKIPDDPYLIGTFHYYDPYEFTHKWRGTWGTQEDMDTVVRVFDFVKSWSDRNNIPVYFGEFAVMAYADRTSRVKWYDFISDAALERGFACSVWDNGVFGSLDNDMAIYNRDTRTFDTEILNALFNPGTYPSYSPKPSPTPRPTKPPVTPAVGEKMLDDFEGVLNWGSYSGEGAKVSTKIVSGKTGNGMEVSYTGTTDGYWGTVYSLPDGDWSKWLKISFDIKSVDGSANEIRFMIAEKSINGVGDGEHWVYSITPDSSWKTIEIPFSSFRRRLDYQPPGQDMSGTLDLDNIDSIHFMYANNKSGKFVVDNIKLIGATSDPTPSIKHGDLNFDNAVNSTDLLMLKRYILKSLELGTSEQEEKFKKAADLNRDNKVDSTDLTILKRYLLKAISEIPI

Another assay addresses T4, Cel9D (Acetivibrio thermocellus, UniProt A3DDN1).
T4 construct: gene celD; signal peptide removed, Ig-like module and dockerin kept, His-tag, E. coli BL21
T4 sequence (A3DDN1 42-649): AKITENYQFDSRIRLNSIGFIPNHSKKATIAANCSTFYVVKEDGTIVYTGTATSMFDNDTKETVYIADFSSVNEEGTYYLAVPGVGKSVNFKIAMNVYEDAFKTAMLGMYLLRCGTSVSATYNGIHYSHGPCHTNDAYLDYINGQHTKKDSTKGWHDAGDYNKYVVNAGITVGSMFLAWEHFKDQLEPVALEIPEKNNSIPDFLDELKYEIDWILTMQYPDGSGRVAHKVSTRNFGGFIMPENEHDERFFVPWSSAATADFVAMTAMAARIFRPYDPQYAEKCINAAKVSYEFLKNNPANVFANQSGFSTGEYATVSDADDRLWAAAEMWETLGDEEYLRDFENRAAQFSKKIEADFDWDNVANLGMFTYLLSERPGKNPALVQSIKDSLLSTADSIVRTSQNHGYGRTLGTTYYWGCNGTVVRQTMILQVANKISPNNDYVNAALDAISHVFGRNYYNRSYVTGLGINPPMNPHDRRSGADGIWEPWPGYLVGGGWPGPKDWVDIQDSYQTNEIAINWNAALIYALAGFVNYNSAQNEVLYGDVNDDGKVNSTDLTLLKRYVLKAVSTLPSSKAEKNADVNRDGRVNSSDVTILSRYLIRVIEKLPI

In another assay the target is T5, Cbh9A (Acetivibrio thermocellus, UniProt A3DCH2).
T5 construct: gene Cthe_0413; signal peptide removed, dockerin kept, His-tag, E. coli BL21
T5 sequence (A3DCH2 28-1224): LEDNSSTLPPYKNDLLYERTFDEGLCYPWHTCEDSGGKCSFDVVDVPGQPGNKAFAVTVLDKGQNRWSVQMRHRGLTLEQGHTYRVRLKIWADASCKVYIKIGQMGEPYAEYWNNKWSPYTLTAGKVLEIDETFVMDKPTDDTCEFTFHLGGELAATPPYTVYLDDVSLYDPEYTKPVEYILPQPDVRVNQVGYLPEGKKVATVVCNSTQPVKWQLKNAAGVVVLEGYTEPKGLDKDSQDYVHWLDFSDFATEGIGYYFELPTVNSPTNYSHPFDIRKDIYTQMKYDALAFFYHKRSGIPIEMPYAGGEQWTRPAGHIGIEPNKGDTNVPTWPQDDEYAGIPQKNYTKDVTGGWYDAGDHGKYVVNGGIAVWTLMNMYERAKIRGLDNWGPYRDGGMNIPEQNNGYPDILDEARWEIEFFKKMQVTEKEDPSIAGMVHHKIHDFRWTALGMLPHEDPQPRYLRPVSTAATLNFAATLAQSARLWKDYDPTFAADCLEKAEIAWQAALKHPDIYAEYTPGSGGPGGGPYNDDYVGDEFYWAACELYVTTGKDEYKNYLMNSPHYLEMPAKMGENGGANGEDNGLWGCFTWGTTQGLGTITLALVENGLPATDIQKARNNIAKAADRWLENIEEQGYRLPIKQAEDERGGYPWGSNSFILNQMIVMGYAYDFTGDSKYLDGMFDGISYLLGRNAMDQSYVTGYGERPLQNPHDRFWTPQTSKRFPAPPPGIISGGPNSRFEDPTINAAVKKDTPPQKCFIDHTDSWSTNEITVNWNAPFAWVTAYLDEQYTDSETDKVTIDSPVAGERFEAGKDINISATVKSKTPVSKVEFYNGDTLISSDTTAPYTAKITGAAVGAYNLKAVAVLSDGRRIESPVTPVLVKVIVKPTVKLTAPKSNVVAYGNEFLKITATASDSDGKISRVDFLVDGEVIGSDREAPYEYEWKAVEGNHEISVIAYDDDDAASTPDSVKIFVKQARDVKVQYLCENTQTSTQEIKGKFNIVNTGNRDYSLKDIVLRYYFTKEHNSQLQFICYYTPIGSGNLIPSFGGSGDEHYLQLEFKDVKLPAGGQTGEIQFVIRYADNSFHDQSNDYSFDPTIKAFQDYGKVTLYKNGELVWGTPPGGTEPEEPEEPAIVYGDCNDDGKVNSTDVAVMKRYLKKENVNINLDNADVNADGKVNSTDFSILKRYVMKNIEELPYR

The next assay deals with T6, Cel9-44J (Acetivibrio thermocellus, UniProt A3DD30).
T6 construct: gene Cthe_0624; signal peptide removed, GH9 and GH44 modules, dockerin kept, His-tag, codon-optimised synthetic gene, E. coli BL21
T6 sequence (A3DD30 28-1601): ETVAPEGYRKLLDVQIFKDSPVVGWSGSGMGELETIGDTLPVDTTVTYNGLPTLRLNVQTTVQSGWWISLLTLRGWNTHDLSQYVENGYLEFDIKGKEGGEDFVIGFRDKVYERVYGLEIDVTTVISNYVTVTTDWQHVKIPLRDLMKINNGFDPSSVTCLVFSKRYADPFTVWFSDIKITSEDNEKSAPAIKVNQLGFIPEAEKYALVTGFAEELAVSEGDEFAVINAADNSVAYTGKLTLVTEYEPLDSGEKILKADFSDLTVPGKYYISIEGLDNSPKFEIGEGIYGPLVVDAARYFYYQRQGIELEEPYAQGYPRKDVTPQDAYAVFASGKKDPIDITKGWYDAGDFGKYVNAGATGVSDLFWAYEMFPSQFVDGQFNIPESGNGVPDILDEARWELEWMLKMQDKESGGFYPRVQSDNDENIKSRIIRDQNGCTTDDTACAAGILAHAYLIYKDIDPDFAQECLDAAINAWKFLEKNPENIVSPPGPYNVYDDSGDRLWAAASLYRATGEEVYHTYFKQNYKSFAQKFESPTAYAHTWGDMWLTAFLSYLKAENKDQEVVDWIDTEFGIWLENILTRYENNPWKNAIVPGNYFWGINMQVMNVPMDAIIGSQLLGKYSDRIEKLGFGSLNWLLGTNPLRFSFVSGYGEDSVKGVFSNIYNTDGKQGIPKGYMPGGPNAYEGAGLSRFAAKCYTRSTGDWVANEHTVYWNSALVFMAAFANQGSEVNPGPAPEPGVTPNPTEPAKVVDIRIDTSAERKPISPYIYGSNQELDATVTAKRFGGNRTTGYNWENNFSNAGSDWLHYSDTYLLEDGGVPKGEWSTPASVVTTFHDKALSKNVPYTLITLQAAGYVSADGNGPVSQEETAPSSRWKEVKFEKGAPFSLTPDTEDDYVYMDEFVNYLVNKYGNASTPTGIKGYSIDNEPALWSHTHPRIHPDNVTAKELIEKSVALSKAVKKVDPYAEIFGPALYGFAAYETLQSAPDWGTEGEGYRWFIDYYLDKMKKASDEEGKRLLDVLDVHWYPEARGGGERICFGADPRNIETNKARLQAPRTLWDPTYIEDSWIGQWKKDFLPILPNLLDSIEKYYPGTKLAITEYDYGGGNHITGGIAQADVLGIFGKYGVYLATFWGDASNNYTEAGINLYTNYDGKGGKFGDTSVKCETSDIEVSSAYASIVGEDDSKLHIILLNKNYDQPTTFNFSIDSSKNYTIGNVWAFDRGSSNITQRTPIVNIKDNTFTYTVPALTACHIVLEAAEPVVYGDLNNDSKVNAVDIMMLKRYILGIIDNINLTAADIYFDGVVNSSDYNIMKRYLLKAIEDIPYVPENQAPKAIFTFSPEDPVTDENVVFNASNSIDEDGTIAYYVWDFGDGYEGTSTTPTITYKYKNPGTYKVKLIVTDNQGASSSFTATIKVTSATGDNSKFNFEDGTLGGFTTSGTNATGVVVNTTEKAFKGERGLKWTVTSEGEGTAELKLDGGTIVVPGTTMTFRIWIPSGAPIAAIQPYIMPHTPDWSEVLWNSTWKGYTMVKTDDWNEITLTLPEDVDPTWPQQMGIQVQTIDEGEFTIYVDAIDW

Consider `OC[C@H]1O[C@@H](O[C@H]2[C@H](O)[C@@H](O)[C@H](O[C@H]3[C@H](O)[C@@H](O)[C@H](O[C@H]4[C@H](O)[C@@H](O)[C@H](O[C@H]5[C@H](O)[C@@H](O)[C@H](O[C@H]6[C@H](O)[C@@H](O)C(O)O[C@@H]6CO)O[C@@H]5CO)O[C@@H]4CO)O[C@@H]3CO)O[C@@H]2CO)[C@H](O)[C@@H](O)[C@@H]1O` (stereo partly drawn) [cellohexaose], for which the TLC product analysis entry on Cel9K was “released specifically cellobiose as the only product over time (Cel48S, Cel9K, and Cbh9A)”; at Cel9T it was “characterized by their indiscriminate scission of cello-oligosaccharides”; at Cel5-26H, “characterized by their indiscriminate scission of cello-oligosaccharides”; at Cel9D it was “confirmed by the hydrolysis products from cello-oligosaccharides as substrate”; at Cbh9A, “released specifically cellobiose as the only product over time (Cel48S, Cel9K, and Cbh9A)”; at Cel9-44J, “characterized by their indiscriminate scission of cello-oligosaccharides”.
